Laboratory results: paper PMC8274062, “Promising Non-cytotoxic Monosubstituted Chalcones to Target Monoamine Oxidase-B” (ACS Medicinal Chemistry Letters, 2021)
Values joined by “and” are separate entries in the source; they are usually repeats but may differ in a detail not shown here. Equal entries are not always repeated.

Experiments:
[1] = test system: A2780 (human ovarian carcinoma cells); assay: Cell growth assay (trypan blue), A2780; assay type: cell-based; conditions: A2780, 72 h of incubation
human recombinant MAO-B = target: T1, human recombinant MAO-B (Homo sapiens, UniProt P27338); assay: Monoamine oxidase inhibition assay (Amplex Red, kynuramine), MAO-B; conditions: for mode of inhibition: Lineweaver–Burk double-reciprocal plots, MAO-B; for Ki: read-out: Ki MAO-B, kynuramine substrate, pH 7.4, 37°C
T1 sequence (P27338 1-520): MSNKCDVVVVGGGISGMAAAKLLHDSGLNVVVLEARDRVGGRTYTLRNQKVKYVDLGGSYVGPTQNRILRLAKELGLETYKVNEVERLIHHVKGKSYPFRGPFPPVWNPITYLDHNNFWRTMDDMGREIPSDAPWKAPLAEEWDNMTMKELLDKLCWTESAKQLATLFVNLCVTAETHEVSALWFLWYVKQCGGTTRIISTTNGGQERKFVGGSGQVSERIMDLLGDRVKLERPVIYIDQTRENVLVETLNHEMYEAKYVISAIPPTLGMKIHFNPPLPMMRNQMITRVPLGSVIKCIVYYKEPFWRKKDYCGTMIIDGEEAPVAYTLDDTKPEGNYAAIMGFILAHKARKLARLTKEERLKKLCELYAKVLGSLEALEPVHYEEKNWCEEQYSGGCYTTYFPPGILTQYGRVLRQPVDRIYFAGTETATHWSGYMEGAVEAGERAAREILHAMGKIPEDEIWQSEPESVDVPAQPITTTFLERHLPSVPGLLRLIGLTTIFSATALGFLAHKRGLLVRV
Experimental: (§1) Materials. Human recombinant MAO-A and MAO-B were expressed in baculovirus infected BT1 cells (5 mg/ml) and horseradish peroxidases were purchased from Fluka-Sigma-Aldrich s.r.l. (Italy). A Cary-Eclipse fluorimeter (Varian Inc., Palo Alto, CA, USA) was employed for fluorescence measurements.
(§2) Monoamine oxidase inhibition assay. Monoamine oxidase activity was determined by measuring H2O2 generation rate by a peroxidase-coupled continuous assay, using the Amplex Red reagent as fluorogenic substrate for horseradish peroxidase.1 All experiments were carried out as previously reported,2 in 100 mM potassium phosphate buffer, 0.1 mM EDTA, pH 7.4 and at 37°C. The assays were carried out in a final volume of 800 L, in the presence of Amplex Red (100 M) and horseradish peroxidase type II (5 UmL -1), and using kynuramine (20-1200 M) as common MAO-A and MAO-B substrate. h-MAO-A and h-MAO-B concentration in the assay solutions were 3 and 6 g/ml, respectively. After 5 min of pre-incubation of the enzyme with the compounds, substrate was added and the initial rates of reaction were recorded. The rates of the enzymatic reaction were determined by detecting the increase in the fluorescence intensity at
(§3) The generation rate of H2O2 was calculated from the increase of fluorescence intensity by means of calibration curves obtained using standard solution of H2O, in
M of maxima concentrations tested).
(§4) Steady state kinetic parameters (V max and K m) were calculated by fitting the Michaelis-Menten equation to the experimental data (initial velocity vs substrate concentrations), with Sigma Plot software, version 9.0 (Jandel Scientific, San Rafael, CA, USA). The mode of inhibition was determined by global fit analysis (GraphPad 9.0 software, GraphPad Software, San Diego, CA,
(§5) USA) of the initial velocity (V0) vs substrate concentration plots, at various inhibitor concentrations. The competitive, mixed, non-competitive and uncompetitive inhibition models were analysed and the fit giving the highest r2 value was chosen for the calculation of inhibition
(§6) compounds, experimental data are presented as double reciprocal Lineweaver-Burk plots (1/v vs 1/S). Ki values are expressed as mean ±S.D. All experiments were carried out at least in

[2] = test system: Met-5A (human mesothelial cells); assay: Cell growth assay (trypan blue), Met-5A; assay type: cell-based; conditions: nontumorigenic Met-5A mesothelial cells
Excerpt: fluorescence measurements.
prepared in dimethylsulfoxide.
performed to determine cell viability.
µM of maxima concentrations tested).
The mode of inhibition was […]

[3] = test system: HT-29 (human colorectal adenocarcinoma); assay: Cell growth assay (trypan blue), HT-29; assay type: cell-based; conditions: HT-29, 72 h of incubation
human recombinant MAO-A = target: T2, human recombinant MAO-A (Homo sapiens, UniProt P21397); assay: Monoamine oxidase inhibition assay (Amplex Red, kynuramine), MAO-A; conditions: read-out: Ki MAO-A; kynuramine substrate, pH 7.4, 37°C
T2 sequence (P21397 1-527): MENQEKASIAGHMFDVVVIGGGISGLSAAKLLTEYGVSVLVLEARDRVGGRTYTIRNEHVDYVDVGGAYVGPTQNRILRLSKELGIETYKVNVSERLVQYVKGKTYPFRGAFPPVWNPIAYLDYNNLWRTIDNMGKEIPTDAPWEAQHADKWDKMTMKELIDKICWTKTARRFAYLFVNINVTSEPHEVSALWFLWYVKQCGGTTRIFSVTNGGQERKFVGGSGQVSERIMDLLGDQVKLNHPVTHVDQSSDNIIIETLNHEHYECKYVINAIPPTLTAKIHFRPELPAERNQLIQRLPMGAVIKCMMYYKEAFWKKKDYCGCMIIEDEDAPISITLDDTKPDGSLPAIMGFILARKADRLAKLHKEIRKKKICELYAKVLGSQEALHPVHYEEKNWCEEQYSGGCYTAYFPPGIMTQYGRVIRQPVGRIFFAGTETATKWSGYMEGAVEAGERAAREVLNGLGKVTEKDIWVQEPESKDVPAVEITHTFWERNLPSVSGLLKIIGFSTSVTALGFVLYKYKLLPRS
Experimental: as §1, §2, §3
M of maxima concentrations tested).
as §4, §5, §6

[4] = test system: recombinant MAO-A or MAO-B; assay: Reversibility assay (dialysis/ultrafiltration); assay type: biochemical, human; conditions: incubated at 4 times the Ki value for 20 min before dialysis
MAO-B = test system: MAO-B; set-up: method as in PMID 26337020, PMID 28577983; conditions: previously tested; ref [19],[23]; cited from earlier work

With `C[C@H](NCc1ccc(OCc2cccc(F)c2)cc1)C(N)=O` [safinamide, reference compound] the GI50 [1] was over 20 µM, the mode of inhibition (human recombinant MAO-B) was “standard competitive inhibitor” and the GI50 [2] was over 20 µM. The GI50 [3] was over 20 µM.
In the case of `COc1ccc(C(=O)/C=C/c2ccccc2)cc1` [Compound 17], the Ki (human recombinant MAO-A) is reported as 13 µM, the GI50 [1] is reported as 6.8 ± 1 µM and the Ki (human recombinant MAO-B) is reported as 22 nM and 21.9 nM. The GI50 [2] was about 11.8 µM and the GI50 [3] was 11.7 ± 3.7 µM.
Compound `O=C(/C=C/c1ccc(C(F)(F)F)cc1)c1ccccc1` [Compound 6] has a GI50 [1] of 14 ± 0.9 µM and a GI50 [3] of 12.2 ± 0.4 µM.
`O=C(/C=C/c1ccccc1C(F)(F)F)c1ccccc1` [Compound 4] showed a GI50 [1] of 7.2 ± 0.3 µM and a GI50 [3] of 11.7 ± 3.6 µM.
With `O=C(/C=C/c1ccccc1)c1ccccc1C(F)(F)F` [Compound 12] the GI50 [1] was 5.8 ± 2.9 µM and the GI50 [3] was 10.8 ± 0.4 µM.
In the case of `O=C(/C=C/c1cccc([N+](=O)[O-])c1)c1ccccc1` [Compound 2], the Ki (human recombinant MAO-A) is reported as 2.5 µM, the GI50 [1] is reported as 2.8 ± 0.3 µM and the Ki (human recombinant MAO-B) is reported as 71 ± 11 nM. For the same compound, the GI50 [3] was 5 ± 1.8 µM.
Compound `O=C(/C=C/c1ccc([N+](=O)[O-])cc1)c1ccccc1` [Compound 3] has a GI50 [1] of 7.5 ± 1.3 µM and a GI50 [3] of 15.5 ± 3.9 µM.
Work on `COc1ccc(/C=C/C(=O)c2ccccc2)cc1` [Compound 9] yielded a GI50 [1] of 14.4 ± 3.5 µM and a GI50 [3] of 16.7 ± 2.5 µM.
For `O=C(/C=C/c1ccccc1[N+](=O)[O-])c1ccccc1` [Compound 1], the Ki (human recombinant MAO-A) was 2.2 µM, the GI50 [1] was over 20 µM and the mode of inhibition (human recombinant MAO-B) was “competitive behavior”. For the same compound, the Ki (human recombinant MAO-B) was 400 ± 80 nM and the GI50 [3] was over 20 µM.
In the case of `O=C(/C=C/c1ccccc1)c1ccccc1[N+](=O)[O-]` [Compound 10], the GI50 [1] is reported as 5.8 ± 0.8 µM and the GI50 [3] is reported as 8.3 ± 1.4 µM.
For `O=C(/C=C/c1ccccc1)c1cccc(C(F)(F)F)c1` [Compound 13], the Ki (human recombinant MAO-A) was 4.6 µM, the GI50 [1] was over 20 µM and the “MAO activity after dialysis (reversibility)” value [4] was “fully recovered”. The mode of inhibition (human recombinant MAO-B) was “competitive mode of inhibition”, the Ki (human recombinant MAO-B) was 5 ± 0.5 nM and the GI50 [2] was over 20 µM. For the same compound, the GI50 [3] was over 20 µM.
`O=C(/C=C/c1cccc(C(F)(F)F)c1)c1ccccc1` [Compound 5] gave a GI50 [1] of 10 ± 0.4 µM and a GI50 [3] of 12.7 ± 3.2 µM.
For `COc1ccccc1/C=C/C(=O)c1ccccc1` [Compound 7], the GI50 [1] was 13.8 ± 0.3 µM and the GI50 [3] was 13 ± 4 µM.
For `COc1ccccc1C(=O)/C=C/c1ccccc1` [Compound 15], the GI50 [1] is listed as 7.3 ± 1.1 µM, the “inhibitory potency on MAO-B” value (MAO-B) is listed as “lower inhibitory potency than for 17” and the GI50 [3] is listed as 14.8 ± 2 µM.
For `COc1cccc(C(=O)/C=C/c2ccccc2)c1` [Compound 16], the GI50 [1] is given as 8 ± 0.1 µM, the “inhibitory potency on MAO-B” value (MAO-B) is given as “lower inhibitory potency than for 17” and the GI50 [3] is given as 14.7 ± 2.5 µM.
In the case of `O=C(/C=C/c1ccccc1)c1cccc([N+](=O)[O-])c1` [Compound 11], the GI50 [1] is reported as 4.3 ± 1.5 µM and the GI50 [3] is reported as 9 ± 0.1 µM.
With `COc1cccc(/C=C/C(=O)c2ccccc2)c1` [Compound 8] the GI50 [1] was 13.2 ± 2.2 µM and the GI50 [3] was 14.5 ± 0.7 µM.
In the case of `O=C(/C=C/c1ccccc1)c1ccccc1` [chalcone], the Ki (human recombinant MAO-A) is reported as 14.6 µM, the mode of inhibition (human recombinant MAO-B) is reported as “competitive behavior” and the Ki (human recombinant MAO-B) is reported as 56 ± 6 nM. For the same compound, the GI50 [2] was about 7 µM.
For `O=C(/C=C/c1ccccc1)c1ccc(C(F)(F)F)cc1` [Compound 14], the Ki (human recombinant MAO-A) was 9.2 µM, the mode of inhibition (human recombinant MAO-B) was “competitive behavior” and the Ki (human recombinant MAO-B) was 14.6 ± 0.1 nM.
